Results from patent US20060183786A1, “Injectable long-acting analgesic composition comprising an ester derivative of ketorolac” (CHI MEI FOUNDATION HOSPITAL, priority 2005, published 2006).
Values after ≈ are worked out from the molar mass of the structure shown. Blank lines part the entries; values can stand above or below the compound they belong to.

Columns and labels:
[1] = parenteral, n>20,000; cited from earlier work
[2] = tested on: rats intraplantarly injected with carrageenin; assay: Paw swelling (paw thickness), anti-inflammatory effect after intramuscular injection; type: in vivo, Sprague-Dawley rats
Description: Louis, Mo., USA) was injected subcutaneously into the plantar space of the right hind paw of all rats. Intraplantar injections were made with a Hamilton syringe and a 30-gauge hypodermic needle. The needle was inserted into the pad region of the glabrous skin and moved 6-8 mm proximal toward the tarsal region. • (5) Measurements of the pain threshold values of rat paw: Paw pressure test was conducted using the TSE Analgesia System (TSE Technical & Scientific Equipment GmbH; Bad Homburg, Germany). […] Paw thickness was measured immediately prior to and following carrageenin injection. […] A two-way analysis of variance with one-way repeated method was used to compare the differences between groups. The Bonferroni test was used as a post-hoc test to compare the differences between the medication groups and the vehicle group at each time point. […] (“*” means P<0.05 whereas “+” means P<0.01 when compared with the vehicle group). The two-way analysis of variance with one-way repeated method is a powerful statistical method which can be used to evaluate the differences among groups. […] In order to keep a similar condition of carrageenin-induced paw edema and pain at each testing day, this 4-day study was accomplished by conducting four one-day studies consecutively (i.e. from day 1 to day 4). All rats received only one intramuscular injection of either ketorolac propyl ester (80, 160, or 240 μmole/Kg, prepared in sesame oil) or the vehicle (sesame oil only) at the start of study (day 1) and then (1 minute later) received intraplantar injection of carrageenin at either day 1, 2, 3, or day 4. Each rat received only one injection of carrageenin. […] A three-way analysis of variance with one-way repeated method was used to compare the differences between groups. The Bonferroni test was used as a post-hoc test to compare the differences between the medication groups and the vehicle group at each time point. […] (“*” means P<0.05 whereas “+” means P<0.01 when compared with the vehicle group). The three-way analysis of variance with one-way repeated method is a powerful statistical method which can be used to evaluate the differences among groups. […] A 4-day study was carried out. […] All rats received only one intramuscular injection of a tested analgesic drug (ketorolac or a ketorolac ester derivative, prepared in sesame oil) or the vehicle (sesame oil only) at the start of study (day 1) and then received intraplantar injection of carrageenin at either day 1, 2, 3, or day 4. Each rat received only one injection of carrageenin. […] All rats received only one intramuscular injection of either a tested analgesic drug (ketorolac propyl ester prepared in four different oils) or the vehicle (4 different oils) at the start of study (day 1) and then received intraplantar injection of carrageenin at either day 1, 2, 3, or day 4. Each rat received only one injection of carrageenin.

Solubility in sesame oil = type: physicochemical
[3] = tested on: rats intraplantarly injected with carrageenin; assay: Paw pressure test (pain threshold of paw), analgesic effect after intramuscular injection; type: in vivo, Sprague-Dawley rats
Description: Louis, Mo., USA) was injected subcutaneously into the plantar space of the right hind paw of all rats. Intraplantar injections were made with a Hamilton syringe and a 30-gauge hypodermic needle. The needle was inserted into the pad region of the glabrous skin and moved 6-8 mm proximal toward the tarsal region. • (5) Measurements of the pain threshold values of rat paw: Paw pressure test was conducted using the TSE Analgesia System (TSE Technical & Scientific Equipment GmbH; Bad Homburg, Germany). The TSE Analgesia System is designed to perform rapid and accurate screening of analgesic drug candidates on the normal and inflamed paw of small laboratory animals, according to the Randall-Selitto method. The data can be measured and recorded by a control unit and a computer system connected thereto. The animal's paw is placed on a plinth and is applied with an increasing pressure generated from the tip of a sensor. The applied pressure is measured. The sensor is made from smooth plastic to prevent the paw from being injured when the animal withdraws its paw suddenly. To start the test, a foot switch is pressed and the sensor is lowered rapidly until it contacts the rat's paw. Thereafter, the sensor is lowered in small steps until the pain threshold is reached, at which time the tested animal (rat) starts to move vigorously and tries to withdraw its paw. The foot switch is then released and the sensor is raised. The value of the applied pressure measured at the pain threshold is shown on the display and simultaneously delivered to the computer system, which is installed with a software system capable of transferring the measured data into Excel format, which can be used as a basis for further evaluation, e.g., statistics. The TSE Analgesia system is suitable for rats, mice and other small laboratory animals. […] To prevent tissue damage, a cutoff pressure of 350 gm was set. […] In order to keep a similar condition of carrageenin-induced paw edema and pain at each testing day, this 4-day study was accomplished by conducting four one-day studies consecutively (i.e. from day 1 to day 4). All rats received only one intramuscular injection of either ketorolac propyl ester ([…], […]) or the vehicle ([…]) at the start of study (day 1) and then (1 minute later) received intraplantar injection of carrageenin at either day 1, 2, 3, or day 4. Each rat received only one injection of carrageenin. […] A three-way analysis of variance with one-way repeated method was used to compare the differences between groups. The Bonferroni test was used as a post-hoc test to compare the differences between the medication groups and the vehicle group at each time point. […] (“*” means P<0.05 whereas “+” means P<0.01 when compared with the vehicle group). The three-way analysis of variance with one-way repeated method is a powerful statistical method which can be used to evaluate the differences among groups. […] A 4-day study was carried out. […] All rats received only one intramuscular injection of a tested analgesic drug (ketorolac or a ketorolac ester derivative, […]) or the vehicle ([…]) at the start of study (day 1) and then received intraplantar injection of carrageenin at either day 1, 2, 3, or day 4. Each rat received only one injection of carrageenin.

[4] = cited from earlier work
[5] = cited from earlier work; remark: listed apart in the source
[6] = human cadaver skin, compared with KEE; cited from earlier work
[7] = human serum, compared with KEE; cited from earlier work
[8] = cited from earlier work; remark: listed apart in the source
[9] = tested on: rats intraplantarly injected with carrageenin; assay: Paw swelling (paw thickness), anti-inflammatory effect after intramuscular injection; type: in vivo, Sprague-Dawley rats; settings: for Anti-inflammatory duration (h): in water
[10] = 30 mg (=80 μmole) given to an adult, clinical practice; cited from earlier work
[11] = compared with commercially available ketorolac (trometamole salt); cited from earlier work
[12] = 240 μmole/Kg intramuscular, oil suspension in sesame oil
[13] = 240 μmole/Kg intramuscular, in oil A (sesame oil)
[14] = 80 μmole/Kg intramuscular, in oil A (sesame oil)
[15] = 160 μmole/Kg intramuscular, in oil A (sesame oil)
[16] = 240 μmole/Kg intramuscular, in oil B (soybean oil)
[17] = 240 μmole/Kg intramuscular, in oil C (peanut oil)
[18] = 240 μmole/Kg intramuscular, in oil D (castor oil)
[19] = 240 μmole/Kg intramuscular, in oil E (cotton seed oil)
[20] = intramuscular injection of 24-240 μmole, in 0.9% saline

solubility in sesame oil (Solubility in sesame oil): 10.6 mM (≈ 2710 µg/mL)
solubility (Solubility in sesame oil; oil or lipid): 2700 µg/mL (≈ 10.6 mM)
SMILES: O=C(c1ccccc1)c1ccc2n1CCC2C(=O)O (racemic) [Ketorolac, (±)-5-benzoyl-2,3-dihydro-1H-pyrrolizine-1-carboxylic acid]
odds ratio (OR), risk of gastrointestinal bleeding compared to opioids [1]: 1.30
odds ratio (OR), risk of operative site bleeding compared to opioids [1]: 1.02
anti-inflammatory effect [2, 12]: failed to provide significant analgesic and antiinflamatory effects
analgesic effect [3, 12]: failed to provide significant analgesic and antiinflamatory effects
bound to plasma proteins [4]: > 99%
mean terminal elimination half-life (T1/2β) ([5]; healthy volunteers): about 5 hours
apparent volume of distribution (Vd) ([5]; in vivo): < 0.3 L/kg

SMILES: CN(C)C(=O)COC(=O)C1CCn2c(C(=O)c3ccccc3)ccc21 (centres unmarked) [KDAE, ketorolac [(N,N-dimethylamino)carbonyl]methyl ester]
skin flux [6]: relatively higher skin flux
enzymatic hydrolysis to liberate the parent drug [7]: faster enzymatic hydrolysis

SMILES: O=C(c1ccccc1)c1ccc2n1CCC2C(=O)OCc1ccccc1 (centres unmarked) [Ketorolac benzyl ester]
Anti-inflammatory duration [2, 13]: 56 h
Analgesic duration [3, 13]: 56 h

SMILES: CCCCCCCCCCCCCCCCOC(=O)C1CCn2c(C(=O)c3ccccc3)ccc21 (centres unmarked) [Ketorolac cetyl ester]
Anti-inflammatory duration [2, 13]: 78 h
Analgesic duration [3, 13]: 74 h

SMILES: CCCCCCCCCCOC(=O)C1CCn2c(C(=O)c3ccccc3)ccc21 (centres unmarked) [Ketorolac decyl ester]
Anti-inflammatory duration [2, 13]: 76 h
Analgesic duration [3, 13]: 76 h

SMILES: CCCCCCCOC(=O)C1CCn2c(C(=O)c3ccccc3)ccc21 (centres unmarked) [Ketorolac heptyl ester]
Anti-inflammatory duration [2, 13]: 74 h
Analgesic duration [3, 13]: 74 h

SMILES: CCCCCOC(=O)C1CCn2c(C(=O)c3ccccc3)ccc21 (centres unmarked) [Ketorolac pentyl ester]
Anti-inflammatory duration [2, 13]: 56 h
Analgesic duration [3, 13]: 56 h

SMILES: CCCOC(=O)C1CCn2c(C(=O)c3ccccc3)ccc21 (centres unmarked) [Ketorolac propyl ester]
Anti-inflammatory duration [2, 14]: 6 h
Anti-inflammatory duration [2, 15]: 30 h
Anti-inflammatory duration [2, 13]: 54 h
Anti-inflammatory duration [2, 16]: 54 h
Anti-inflammatory duration [2, 17]: 56 h
Anti-inflammatory duration [2, 18]: 56 h
Anti-inflammatory duration [2, 19]: 78 h
Analgesic duration [3, 14]: 6 h
Analgesic duration [3, 15]: 28 h
Analgesic duration [3, 13]: 54 h
Analgesic duration (h) [3, 16]: 56, 56 h
Analgesic duration (h) [3, 17]: 56, 56 h
Analgesic duration [3, 18]: 56 h
Analgesic duration [3, 19]: 78 h
permeation rate of ketorolac in rat skin (maximum) [8]: 46.61 nmole/cm^2/h

SMILES: CC(C)(C)OC(=O)C1CCn2c(C(=O)c3ccccc3)ccc21 (centres unmarked) [Ketorolac tert-butyl ester]
Anti-inflammatory duration [2, 13]: 56 h
Analgesic duration [3, 13]: 56 h

SMILES: NC(CO)(CO)CO.O=C(c1ccccc1)c1ccc2n1CCC2C(=O)O (centres unmarked) [Ketorolac tromethamine, ketorolac tromethamine, reference compound]
Analgesic duration ([3]; 24 μmole/Kg intramuscular, in water): 6 h
Analgesic duration ([3]; 80 μmole/Kg intramuscular, in water): 6 h
Analgesic duration ([3]; 240 μmole/Kg intramuscular, in water): 8 h
duration of action ([3]; intramuscular injection 30 mg/kg in rats): 6 to 8 h
duration of significant analgesic effects (pain threshold of paw) [3, 20]: 6 to 8 h
Anti-inflammatory duration (h) ([9]; 24 μmole/Kg intramuscular): 8, 8, 8 h
Anti-inflammatory duration (h) ([9]; 80 μmole/Kg intramuscular): 8, 8, 8 h
Anti-inflammatory duration (h) ([9]; 240 μmole/Kg intramuscular): 8, 8, 8 h
duration of significant anti-inflammatory effects (paw swelling) [9, 20]: 8 h
duration of action [10]: 6 to 8 h

SMILES: CCN(CC)CCOC(=O)C1CCn2c(C(=O)c3ccccc3)ccc21.O=C(O)/C=C\C(=O)O (centres unmarked) [maleate salt of 2-(diethylamino)ethyl ester of ketorolac]
undesired side effects (gastrointestinal irritation and ulceration) [11]: less undesired side effects

SMILES: O=C(O)C(=O)O.O=C(c1ccccc1)c1ccc2n1CCC2C(=O)OCCN1CCCC1 (centres unmarked) [oxalate salt of 2-(1-pyrrolidinyl)ethylester of ketorolac]
undesired side effects (gastrointestinal irritation and ulceration) [11]: less undesired side effects
